Results reported in article PMC10675077, “Antimicrobial Properties of New Polyamines Conjugated with Oxygen-Containing Aromatic Functional Groups” (Molecules, 2023).
Values after ≈ are worked out from the molar mass of the structure shown. Marks after values point to notes of the source that are not given here.

What was measured:
Escherichia coli JM101 = experiment: MIC, microdilution in culture medium, E. coli; assay type: cell-based; settings: 20 h, 37 °C, average of at least three experiments; for MIC: Escherichia coli, JM101, read-out: MIC, Bacteria, E. coli JM101
Description: (§1) The microorganisms used for the susceptibility tests were the bacteria Escherichia coli JM101 and Staphylococcus aureus BHI, and the yeast Saccharomyces cerevisiae strains BY4741 (MAT a his3Δ1 leu2Δ0 met15Δ0 ura3Δ0 (EUROSCARF)) carrying YEplac195 (from EUROSCARF) or YEPlac195-PDR5 (provided by Ayse Banu Demir, Izmir University of Economics, Turkey) plasmids.
(§2) Bacterial strains were usually maintained and grown in an LB medium (0.5% (w/v) yeast extract, 1% (w/v) bactotryptone, and 1% (w/v) NaCl) at 37 °C. For MIC (minimal inhibitory concentration) and MMC (minimal microbicidal concentration) assays, and for the determination of synergies, overnight growth was carried out in 2% (w/v) bactopeptone (BP), and then the cultures were diluted and incubated for several hours in 2% (w/v) BP for ensuring logarithmic growth. Yeast strains were grown in an SC-ura medium (0.17% (w/v) yeast nitrogen base without amino acids and ammonium sulphate, 0.2% (w/v) drop-out without uracil, 0.5% (w/v) (NH4)2SO4, and 2% (w/v) glucose) at 30 °C. Liquid cultures were incubated with shaking (200 rpm). Solid media also contained 2% (w/v) agar.
For the analysis of the antimicrobial activity, the strategies and indications of Cushnie et al. were considered. The standardised method of microdilution in a culture medium was followed to determine the MIC [55]. In bacterial strains, serial dilutions of the compounds to be tested and the control antibiotics were prepared in phosphate buffer (20 mM, pH 7.4, 0.5 mL) and were mixed with a suspension of bacterial cells in a logarithmic growth phase (in 1% BP, 0.5 mL). The final OD600 of the whole solutions were 0.004 and 0.008 for E. coli and S. aureus cultures, respectively. After 20 h of incubation at 37 °C with shaking, the MIC was determined as the lowest concentration of each compound in which no visible bacterial growth was observed.

[1] = tested on: Saccharomyces cerevisiae BY4741/YEplac195; experiment: microbe, parasite or virus in culture; assay type: cell-based; settings: 24 h, 30 °C, average of at least three experiments; for MIC: Saccharomyces cerevisiae, read-out: MIC, Yeast, BY4741/ YEplac195
Description: as §1, §2
(§3) The determination of the MIC for yeast strains was carried out following a similar procedure to that of the polyamines and antifungal reference agents: Serial dilutions of each one in phosphate buffer (20 mM, pH 7.4, 0.5 mL) were prepared and mixed with a suspension of yeast cells (OD600 0.04 in SC-ura 2X (VWR, Atlanta, GA, USA), 0.5 mL). […] Experiments were carried out at least three times in all cases.

[2] = tested on: Saccharomyces cerevisiae BY4741/YEplac195-PDR5; experiment: microbe, parasite or virus in culture; assay type: cell-based; settings: 24 h; for MIC: Saccharomyces cerevisiae, read-out: MIC, Yeast, BY4741/ PDR5
Description: as §1, §2, §3

S. cerevisiae strains = experiment: Minimal fungicidal concentration, S. cerevisiae strains; assay type: cell-based, Saccharomyces cerevisiae; settings: fungistatic = growth on SC-ura plates after incubation at four times the MIC
Experimental: (§4) Once the MIC was known, the samples were prepared as described in the previous section with polyamine concentrations corresponding to the MIC and half, double, and four times its value. After overnight incubation with the microorganisms, 30 μL of a ten-fold dilution of each one was spread in LB (in the case of bacterial strains) or SC-ura (for yeast strains) plates. They were incubated for 20 h at 37 °C (bacteria) or 48 h at 30 °C (yeasts), and the level of growth was determined. […] Experiments were carried out at least three times.

[3] = Potentiometric titrations in water (protonation constants); assay type: physicochemical; settings: for log β (cumulative protonation constant): calculated as log β = ∑j log KHjL; for n, average number of positive charges at pH 7.4: calculated from protonation constants
Experimental: The potentiometric titrations were carried out at 298.1 ± 0.1 K using NaCl 0.15 M as a supporting electrolyte. The experimental procedure (burette, potentiometer, cell, stirrer, microcomputer, etc.) has been fully described elsewhere. The acquisition of the EMF data was performed with the computer program PASAT [50]. The reference electrode was a Ag/AgCl electrode in a saturated KCl solution. The glass electrode was calibrated as a hydrogen-ion concentration probe via the titration of previously standardised amounts of HCl with CO2-free NaOH solutions and the equivalent point determined using the Gran method, which provides the standard potential, E^θ′, and the ionic product of water (pKw = 13.73(1)).
The computer program […] was used to calculate the protonation constants. The pH range investigated was 2.5–11.0, and the concentration of the ligands ranged from 5 × 10^−4 to 5 × 10^−[…]. The different titration curves for each system (at least two) were treated either as a single set or as separated curves without significant variations in the values of the stability constants. Finally, the sets of data were merged and treated simultaneously to give the final stability constants.

S. aureus BHI = experiment: Minimal bactericidal concentration, S. aureus; assay type: cell-based, Staphylococcus aureus; settings: overnight incubation, plating on LB; for MBC: Staphylococcus aureus
Experimental: as §4

[4] = Cytotoxicity, flow cytometry viability assay with propidium iodide; assay type: cell-based, human; settings: human, Jurkat cells (human lymphocytic leukaemia, ATCC TIB-152), 24 h treatment, average of three experiments, read-out: IC50, cytotoxicity on the human Jurkat cell line
Experimental: The cytotoxicity of the compounds was assessed via flow cytometry with a viability assay using propidium iodide (PI), a DNA-binding fluorescent probe not permeant to live cells, which is commonly used to detect dead cells in a population. The human lymphocytic leukaemia Jurkat cell line (ATCC TIB-152) was obtained from the American Type Cell Culture (Sigma-Aldrich) and grown in suspension in an RPMI 1640 medium (Thermo Fisher Scientific, Waltham, MA, USA) supplemented with L-glutamine, antibiotics, and 10% heat-inactivated foetal calf serum (FCS, Thermo Fisher Scientific, Waltham, MA, USA). For the viability assay, cells were seeded in plastic 96-well plates at […] in an RPMI 1640 medium supplemented with 5% FCS. The cells were treated for 24 h with a range of concentrations of the test compounds or with the same volume of phosphate buffer (PBS) in control wells. After incubation, cell suspensions were washed, resuspended in 400 μL fresh medium, and incubated for 5 min at room temperature in the dark with 3.75 μM PI (Sigma-Aldrich). Cell viability was determined via flow cytometry using a Gallios flow cytometer (Beckman Coulter). PI fluorescence was excited with an argon-ion laser at 488 nm and collected through a 620/630 nm band-pass emission. Cellular events were discriminated from debris using forward scatter (FS) and side scatter (SS) signals. Cell aggregates were excluded from analysis based on FS-integral and FS-peak. The gates applied for population discrimination were set manually based on control samples. For each sample, 10,000 events were collected. For further analysis, the cytometric data were exported to Kaluza 2.1 software (Beckman Coulter, Brea, CA, USA). Dead cells were identified and quantified as PI-positive events. The cytotoxic potency of test compounds was quantified using their IC50 values, i.e., the compound concentration at which cell viability is inhibited by 50%, as calculated via curve fitting and determined with the correlation coefficient (R2) using GraphPad Prism 9.0 software. Experiments were carried out in triplicate.

[5] = 298 K, 0.15 mol/dm^3 NaCl, error in last figure in parentheses

Compound | MIC, Bacteria, E. coli JM101 (Escherichia coli JM101) [µg/mL] | MIC, Yeast, BY4741/ YEplac195 [1] [µg/mL] | MIC, Yeast, BY4741/ PDR5 ([2]; 30 °C, Pdr5-overexpressing strain) [µg/mL] | Minimal fungicidal concentration (MFC), S. cerevisiae Strains (S. cerevisiae strains) | Stepwise protonation constant (log K), H2L + H ⇄ H3L [3, 5] | Stepwise protonation constant (log K), H3L + H ⇄ H4L [3, 5] | Stepwise protonation constant (log K), H4L + H ⇄ H5L [3, 5] | Stepwise protonation constant (log K), H5L + H ⇄ H6L [3, 5] | Stepwise protonation constant (log K), L + H ⇄ HL [3, 5] | Stepwise protonation constant (log K), LH + H ⇄ H2L [3, 5] | log β (cumulative protonation constant) ([3]; 298 K, 0.15 mol/dm^3 NaCl) | n, average number of positive charges at pH 7.4 [3] | Minimal bactericidal concentration (MBC), S. aureus BHI (S. aureus BHI) | MIC (Escherichia coli JM101) [µg/mL] | MIC [1] [µg/mL] | MIC [2] [µg/mL] | IC50 at 24 h [4] [µg/mL] | MBC (S. aureus BHI) [µg/mL]
N^1-(benzo[d][1,3]dioxol-5-ylmethyl)-N^3-(2-((2-((3-((benzo[d][1,3]dioxol-5-ylmethyl)amino)propyl)amino)ethyl)(2-((3-(((2,3-dihydrobenzofuran-6-yl)methyl)amino)propyl)amino)ethyl)amino)ethyl)propane-1,3-diamine [Compound 4a] | 5 | 150 | 150 | Fungistatic | 9.12 (1) | 8.07 (1) | 7.48 (1) | 6.35 (2) | 10.95 (1) | 9.63 (1) | 51.60 | 4.5 | 8 ^a µg/mL | – | – | – | – | –
c1cc2nc(c1)CNCCN(CCNCc1ccc3c(c1)OCO3)CCNC2 [Compound 5a, 2-(3,6,9-triaza-1(2,6)-pyridinacyclodecaphane-6-yl)-N-(benzo[d][1,3]dioxol-5-ylmethyl)ethan-1-amine] | – | – | – | Fungistatic | 7.30 (1) | – | – | – | 10.48 (1) | 8.78 (1) | 26.56 | 2.4 | – | 5 | 60 | 60 | 37.8 (≈ 98.7 µM) | 70 (≈ 183 µM)
c1cc2nc(c1)CNCCN(CCNCc1ccc3c(c1)CCO3)CCNC2 [Compound 8a, 2-(3,6,9-triaza-1(2,6)-pyridinacyclodecaphane-6-yl)-N-((2,3-dihydrobenzofuran-5-yl)methyl)ethan-1-amine] | – | – | – | – | 7.296 (4) | – | – | – | 9.943 (3) | 8.736 (3) | 26.17 | 2.4 | – | 15 | 400 | 400 | 128 (≈ 335 µM) | 400 (≈ 1050 µM)
Oc1ccc(CNCCN2CCNCc3cccc(n3)CNCC2)cc1 [Compound 7a] | – | – | – | – | – | – | – | – | – | – | 35.48 | 2.4 | – | 13 | 295 | 295 | 951 (≈ 2670 µM) | –
Oc1ccccc1CNCCN1CCNCc2cccc(n2)CNCC1 [Compound 6a] | – | – | – | Fungistatic | – | – | – | – | – | – | – | 1.91 | – | 2.5 | 45 | 45 | 98 (≈ 276 µM) | 160 (≈ 450 µM)
